Results as given in paper PMC4965148 (PLoS ONE, 2016).
Values joined by “and” are separate entries in the source; they are usually repeats but may differ in a detail not shown here. Equal entries are not always repeated. Where two headings read alike, the source gives them in different places.

How the values were obtained:
HEK293/Human 5-HT3A = target: T1, HEK293/Human 5-HT3A (Homo sapiens, UniProt P46098); test: Ca2+ flux (FLIPR) 5-HT3A antagonist assay; format: cell-based
T1 construct: expressed in transfected cells; host or cells: HEK293 (made by Bristol-Myers Squibb)
T1 sequence (P46098 24-478): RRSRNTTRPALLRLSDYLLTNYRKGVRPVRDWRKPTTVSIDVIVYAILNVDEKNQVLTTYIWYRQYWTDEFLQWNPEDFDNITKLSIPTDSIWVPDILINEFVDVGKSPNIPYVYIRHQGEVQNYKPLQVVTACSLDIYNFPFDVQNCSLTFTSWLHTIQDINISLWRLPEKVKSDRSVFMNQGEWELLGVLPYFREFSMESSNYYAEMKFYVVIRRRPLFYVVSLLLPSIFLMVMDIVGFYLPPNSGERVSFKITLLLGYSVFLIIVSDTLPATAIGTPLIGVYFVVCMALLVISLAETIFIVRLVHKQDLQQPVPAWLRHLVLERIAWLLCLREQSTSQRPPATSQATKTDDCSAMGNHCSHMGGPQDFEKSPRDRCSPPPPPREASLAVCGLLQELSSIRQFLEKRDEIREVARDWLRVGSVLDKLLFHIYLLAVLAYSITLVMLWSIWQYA
Description: Functional activity was examined using Ca^2+-sensitive, dye-based, microfluorometric assays read on the FLIPR Tetra plate reader platform (Molecular Devices, CA, USA). Cells were plated in 384-well black, clear-bottomed Greiner poly-D-lysine coated plates at a density of ~25 K cells/well and incubated at 29°C for 48 h. Prior to assay, media contents were removed and cells incubated in assay buffer containing 5μM final Fluo-4 dye for 90 min. For nAChR assays, the dye-loading buffer was HBSS (#14175 Life Technologies) supplemented with 20 mM HEPES, 0.5 mM CaCl2, 1 mM MgCl2 and 10 μM atropine (final concentration). Test compounds were solubilized in DMSO and serially diluted in NUNC 384-well plates prior to addition of assay buffer (5.3 mM KCl + 140 mM NaCl + 20 mM Hepes + 25 mM CaCl2 + 1 mM MgCl2 + 10 μM atropine final concentration). Compounds diluted in assay buffer were added to the assay plate by the FLIPR and read for approximately 2 min. […] For 5-HT3A antagonist studies, the dye loading and compound diluent buffer was HBSS (#14025 Life Technologies) supplemented with 20 mM HEPES (final concentration) and the concentration of 5-HT used in the assay was 2 μM. Offline transformation of concentration response data was done using a 4 parameter logistic fit using a Bristol-Myers Squibb proprietary informatics software suite.

Rat Brain α7 nAChR = Rat Brain α7 nAChR (Rattus norvegicus, UniProt Q05941); test: [3H]-A-585539 filtration binding
Rat Brain α7 nAChR, sequence (Q05941 23-502): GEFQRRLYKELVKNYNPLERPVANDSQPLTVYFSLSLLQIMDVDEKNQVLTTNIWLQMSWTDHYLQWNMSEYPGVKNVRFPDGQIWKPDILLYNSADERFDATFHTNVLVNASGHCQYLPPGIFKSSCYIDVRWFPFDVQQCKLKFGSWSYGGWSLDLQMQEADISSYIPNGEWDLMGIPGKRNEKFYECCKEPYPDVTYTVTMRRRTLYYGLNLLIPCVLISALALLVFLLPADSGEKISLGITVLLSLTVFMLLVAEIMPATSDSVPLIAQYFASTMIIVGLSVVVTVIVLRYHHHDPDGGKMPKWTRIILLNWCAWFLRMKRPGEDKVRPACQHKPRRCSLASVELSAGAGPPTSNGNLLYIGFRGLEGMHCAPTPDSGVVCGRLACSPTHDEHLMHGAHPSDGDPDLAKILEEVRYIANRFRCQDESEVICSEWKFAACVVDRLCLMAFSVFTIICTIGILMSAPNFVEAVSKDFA

MK-801 treated mice = test: Mouse MK-801 two trial Y maze; format: in vivo
Description: Testing was conducted in a grey polyethylene plastic Y maze that had 3 arms, 2 of 40 cm length (test arms) and 1 of 20 cm length (start arm). Each arm had distinct optical cues covering the walls and a removable partition to occlude the arm as needed. The test consisted of a forced choice trial followed by a free-choice trial. For the forced choice trial the start arm and one test arm was open with access to the 2nd test arm blocked by the partition. Individual subjects were placed in the start arm and allowed to explore the open test arm for 8 min after which they were removed from the maze, placed in a holding cage and the maze was cleaned. Animals were then immediately placed back on the Y maze for the free choice trial and allowed to explore both open test arms for 4 min. The protocol was thus designed for minimal delay between the forced choice and free choice trials. […] For each subject the % time exploring the novel arm during the free choice trial was calculated using the formula: % novel time = novel time/(novel + familiar time) x 100.

[1] = Plasma and brain concentrations after dosing; format: in vivo, mouse; conditions: for Brain Mean ± SD / concentration at 30 min / Kp at 30 min: 30 min; for concentration at 60 min: sc, Mouse MK-801 Y Maze
Description: Occupancy determinations were made either on completion of behavioral testing or in satellite groups of animals dosed in parallel with behavioral testing. At specified time points after dosing, the forebrain (for occupancy), the remaining hindbrain (for brain drug exposure) and plasma were collected, frozen in chilled isopentane and stored at -80°C until assayed. […] Homogenized tissue aliquots were frozen immediately and stored at -80°C. […] Non-specific binding was defined by adding 25 μM MLA to wells containing tissues from vehicle-treated animals. […] The filters were washed with ice-cold assay buffer, punched into a clear plate and 200 μl scintillation fluid added per well. Bound radioactivity was measured using a Wallac Microbeta liquid scintillation counter. Specific binding was calculated by subtracting the value of the non-specific binding from that of the total binding in each sample. The percent occupancy was calculated as [1 –(specific binding in drug treated mice/specific binding in vehicle treated mice)] x 100.
In brief, 50 μL of the plasma sample was extracted by protein precipitation with 150 μL acetonitrile containing an internal standard and 5 μL of supernatant injected into the LC-MS/MS system. Analytes were separated by reversed phase chromatography and detection of each analyte was achieved through selected reaction monitoring mode of mass spectrometry.

Adrenergic α2A = Adrenergic α2A (Homo sapiens, UniProt P08913); test: Selectivity panel, binding
Nav1.5 = Nav1.5 (Homo sapiens, UniProt Q14524); test: Selectivity panel, functional; format: cell-based
Nav1.5, sequence (Q14524 whole entry): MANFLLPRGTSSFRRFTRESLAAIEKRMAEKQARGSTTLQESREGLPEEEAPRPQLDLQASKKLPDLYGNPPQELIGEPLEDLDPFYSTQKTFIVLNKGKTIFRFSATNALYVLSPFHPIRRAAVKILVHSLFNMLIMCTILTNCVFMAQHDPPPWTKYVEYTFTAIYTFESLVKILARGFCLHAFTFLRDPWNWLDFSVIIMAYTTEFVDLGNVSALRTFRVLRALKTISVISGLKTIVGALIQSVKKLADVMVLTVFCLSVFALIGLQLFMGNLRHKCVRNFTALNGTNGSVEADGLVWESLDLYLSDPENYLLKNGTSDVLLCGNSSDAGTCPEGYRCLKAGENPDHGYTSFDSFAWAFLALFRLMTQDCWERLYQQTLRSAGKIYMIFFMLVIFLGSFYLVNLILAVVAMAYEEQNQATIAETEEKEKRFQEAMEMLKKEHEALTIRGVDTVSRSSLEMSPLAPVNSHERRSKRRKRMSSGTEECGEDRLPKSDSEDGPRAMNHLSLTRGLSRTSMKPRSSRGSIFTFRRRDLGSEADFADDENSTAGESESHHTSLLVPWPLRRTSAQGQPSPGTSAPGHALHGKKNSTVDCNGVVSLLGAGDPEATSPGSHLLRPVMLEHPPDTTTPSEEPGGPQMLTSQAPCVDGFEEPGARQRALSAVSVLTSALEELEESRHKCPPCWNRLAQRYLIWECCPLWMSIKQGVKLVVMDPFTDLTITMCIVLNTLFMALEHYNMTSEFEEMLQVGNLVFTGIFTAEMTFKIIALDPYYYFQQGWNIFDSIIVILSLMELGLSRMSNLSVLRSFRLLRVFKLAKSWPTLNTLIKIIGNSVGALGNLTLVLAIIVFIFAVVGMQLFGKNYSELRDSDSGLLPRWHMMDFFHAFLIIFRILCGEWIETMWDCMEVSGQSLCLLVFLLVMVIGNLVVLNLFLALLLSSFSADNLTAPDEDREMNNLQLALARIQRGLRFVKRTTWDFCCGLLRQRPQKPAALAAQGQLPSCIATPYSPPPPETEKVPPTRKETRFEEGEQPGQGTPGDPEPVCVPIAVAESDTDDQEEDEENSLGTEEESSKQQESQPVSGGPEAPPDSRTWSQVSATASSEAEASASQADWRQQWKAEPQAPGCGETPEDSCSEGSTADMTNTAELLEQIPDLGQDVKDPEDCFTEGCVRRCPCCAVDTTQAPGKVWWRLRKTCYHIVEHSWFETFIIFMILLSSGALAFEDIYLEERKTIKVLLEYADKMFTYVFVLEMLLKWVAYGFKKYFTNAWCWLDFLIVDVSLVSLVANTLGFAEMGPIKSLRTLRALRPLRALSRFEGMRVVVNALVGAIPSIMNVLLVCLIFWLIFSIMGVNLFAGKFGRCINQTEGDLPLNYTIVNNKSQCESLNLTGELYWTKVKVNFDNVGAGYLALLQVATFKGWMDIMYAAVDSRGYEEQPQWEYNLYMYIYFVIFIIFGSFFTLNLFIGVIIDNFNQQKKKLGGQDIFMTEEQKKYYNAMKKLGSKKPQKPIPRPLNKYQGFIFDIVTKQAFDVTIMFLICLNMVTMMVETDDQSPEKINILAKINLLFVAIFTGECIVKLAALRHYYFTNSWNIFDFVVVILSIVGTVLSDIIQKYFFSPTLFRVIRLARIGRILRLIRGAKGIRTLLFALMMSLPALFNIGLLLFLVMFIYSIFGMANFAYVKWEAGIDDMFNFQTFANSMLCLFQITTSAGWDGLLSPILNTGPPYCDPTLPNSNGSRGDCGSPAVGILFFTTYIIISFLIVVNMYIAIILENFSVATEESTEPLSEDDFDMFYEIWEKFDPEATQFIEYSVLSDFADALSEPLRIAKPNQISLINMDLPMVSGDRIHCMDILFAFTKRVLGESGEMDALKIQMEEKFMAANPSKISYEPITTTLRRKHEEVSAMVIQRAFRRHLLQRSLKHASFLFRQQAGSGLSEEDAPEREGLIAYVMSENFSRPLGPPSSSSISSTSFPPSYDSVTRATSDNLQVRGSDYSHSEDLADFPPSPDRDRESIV

Muscarinic M1 = Muscarinic M1 (Homo sapiens, UniProt P11229); test: Selectivity panel, binding; conditions: read-out: % inhibition @ 10 µM
Muscarinic M1, sequence (P11229 whole entry): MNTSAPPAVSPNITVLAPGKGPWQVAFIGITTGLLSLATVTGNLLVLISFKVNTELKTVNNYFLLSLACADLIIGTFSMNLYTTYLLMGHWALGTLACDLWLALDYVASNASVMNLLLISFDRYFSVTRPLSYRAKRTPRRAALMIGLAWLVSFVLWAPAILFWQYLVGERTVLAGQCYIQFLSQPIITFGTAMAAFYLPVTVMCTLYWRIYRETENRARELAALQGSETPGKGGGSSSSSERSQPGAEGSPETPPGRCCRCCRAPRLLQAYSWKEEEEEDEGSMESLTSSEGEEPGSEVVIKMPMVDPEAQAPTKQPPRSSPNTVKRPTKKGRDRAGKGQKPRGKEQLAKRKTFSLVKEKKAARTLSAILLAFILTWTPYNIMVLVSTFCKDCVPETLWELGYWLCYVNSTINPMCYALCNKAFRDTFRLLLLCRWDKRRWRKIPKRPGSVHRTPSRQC

NMDA NR1/2A = NMDA NR1/2A (Homo sapiens, UniProt Q05586+Q12879); test: Selectivity panel, functional; format: cell-based
NMDA NR1/2A, sequence (Q12879 23-1464, other chains not shown): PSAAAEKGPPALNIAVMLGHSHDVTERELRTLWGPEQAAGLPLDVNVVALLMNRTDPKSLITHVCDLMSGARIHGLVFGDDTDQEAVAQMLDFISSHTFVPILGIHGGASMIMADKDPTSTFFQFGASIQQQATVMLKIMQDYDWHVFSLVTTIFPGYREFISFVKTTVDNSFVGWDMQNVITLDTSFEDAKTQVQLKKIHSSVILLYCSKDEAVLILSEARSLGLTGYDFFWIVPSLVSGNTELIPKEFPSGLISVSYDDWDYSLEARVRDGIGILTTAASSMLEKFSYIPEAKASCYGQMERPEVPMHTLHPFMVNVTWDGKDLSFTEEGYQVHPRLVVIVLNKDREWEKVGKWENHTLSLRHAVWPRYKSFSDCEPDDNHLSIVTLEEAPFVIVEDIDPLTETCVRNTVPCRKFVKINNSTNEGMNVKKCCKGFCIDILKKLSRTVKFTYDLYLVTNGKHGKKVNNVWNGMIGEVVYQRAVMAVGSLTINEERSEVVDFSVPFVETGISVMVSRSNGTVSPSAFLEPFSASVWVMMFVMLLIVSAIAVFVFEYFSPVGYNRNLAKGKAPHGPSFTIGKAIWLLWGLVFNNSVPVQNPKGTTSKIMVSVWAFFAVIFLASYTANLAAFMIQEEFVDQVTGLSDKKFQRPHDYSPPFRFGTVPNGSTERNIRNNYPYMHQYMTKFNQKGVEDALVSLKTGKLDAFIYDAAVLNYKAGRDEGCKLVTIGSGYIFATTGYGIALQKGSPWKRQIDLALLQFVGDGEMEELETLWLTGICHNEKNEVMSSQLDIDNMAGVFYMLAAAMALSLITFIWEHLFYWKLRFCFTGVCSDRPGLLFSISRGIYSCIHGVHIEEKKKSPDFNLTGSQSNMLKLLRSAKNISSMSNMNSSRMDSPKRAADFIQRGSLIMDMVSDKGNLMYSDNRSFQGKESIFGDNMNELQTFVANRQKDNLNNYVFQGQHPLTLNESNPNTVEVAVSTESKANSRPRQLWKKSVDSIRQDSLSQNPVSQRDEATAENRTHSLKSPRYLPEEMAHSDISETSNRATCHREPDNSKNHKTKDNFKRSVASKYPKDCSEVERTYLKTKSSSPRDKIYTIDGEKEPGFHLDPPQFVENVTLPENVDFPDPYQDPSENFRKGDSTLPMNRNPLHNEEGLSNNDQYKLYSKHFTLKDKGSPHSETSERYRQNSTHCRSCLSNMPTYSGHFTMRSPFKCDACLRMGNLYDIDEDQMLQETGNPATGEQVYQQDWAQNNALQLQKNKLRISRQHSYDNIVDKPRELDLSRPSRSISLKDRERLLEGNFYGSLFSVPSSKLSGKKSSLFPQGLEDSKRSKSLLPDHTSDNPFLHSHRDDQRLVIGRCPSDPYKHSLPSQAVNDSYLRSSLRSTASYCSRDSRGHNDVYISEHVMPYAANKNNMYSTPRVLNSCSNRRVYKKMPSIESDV

5-HT2B = 5-HT2B (Homo sapiens, UniProt P41595); test: Selectivity panel, functional; format: cell-based
5-HT2B, sequence (P41595 whole entry): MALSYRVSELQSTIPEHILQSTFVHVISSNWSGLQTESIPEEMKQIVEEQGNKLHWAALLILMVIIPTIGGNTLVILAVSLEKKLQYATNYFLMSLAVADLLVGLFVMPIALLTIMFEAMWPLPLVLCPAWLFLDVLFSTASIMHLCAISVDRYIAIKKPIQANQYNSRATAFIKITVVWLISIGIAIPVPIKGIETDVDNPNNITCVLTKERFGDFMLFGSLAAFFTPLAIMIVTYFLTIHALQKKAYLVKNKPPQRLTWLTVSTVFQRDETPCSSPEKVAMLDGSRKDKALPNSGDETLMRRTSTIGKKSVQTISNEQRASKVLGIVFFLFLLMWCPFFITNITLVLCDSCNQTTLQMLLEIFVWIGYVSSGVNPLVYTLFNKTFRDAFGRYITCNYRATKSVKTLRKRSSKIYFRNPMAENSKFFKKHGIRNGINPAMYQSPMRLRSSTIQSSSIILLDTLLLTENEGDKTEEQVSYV

c1cn(-c2cc(NC3=NC[C@@]4(CN5CCC4CC5)O3)ncn2)cn1 [BMS-933043, (2R)-N-(6-(1H-imidazol-1-yl)-4-pyrimidinyl)-4'H-spiro[4-azabicyclo[2.2.2]octane-2,5'-[1,3]oxazol]-2'-amine]
IC50 (HEK293/Human 5-HT3A; HEK293/Human 5-HT3A Mean ± SD IC50, Ca2+ flux (FLIPR), antagonism of 2 μM 5-HT): 8.07 µM
IC50 (HEK293/Human 5-HT3A; Human 5-HT3A IC50 values (individual), FLIPR, individual determinations): 10.5 µM and 7.2 µM and 8.02 µM and 6.88 µM and 7.28 µM and 4.89 µM and 12.4 µM and 5.32 µM and 8.67 µM and 9.42 µM
Ki (Rat Brain α7 nAChR; Rat Brain α7 nAChR Ki (individual)): 0.00267 µM and 0.00299 µM and 0.00308 µM and 0.00374 µM and 0.0032 µM and 0.00382 µM
Ki (Rat Brain α7 nAChR; Rat Brain α7 nAChR Mean ± SD Ki): 0.003 µM
Ki (Rat Brain α7 nAChR; read-out: Rat Brain α7 nAChR Mean ± SD Ki): 0.0033 µM
time spent in the novel arm in MK-801-treated mice (MK-801 treated mice; doses of 1, 3 and 10 mg/kg sc): significantly increased time spent in the novel arm
Active dose range, MK-801 Y maze (MK-801 treated mice; sc): 1–10 (sc) mg/kg
Brain Mean ± SD ([1]; Mouse NOR (0.03-1 mg/kg study), 0.03 mg/kg sc): < LLQ
Brain Mean ± SD ([1]; Mouse NOR (0.03-1 mg/kg study), 0.10 mg/kg sc): < LLQ
concentration at 30 min ([1]; mouse, brain, subcutaneous, 0.3 mg/kg, Mouse NOR (0.03-1 mg/kg study), 0.30 mg/kg sc, read-out: Brain Mean ± SD): 0.024 ± 0.0039 µM
concentration at 30 min ([1]; mouse, brain, subcutaneous, 1 mg/kg, Mouse NOR (0.03-1 mg/kg study), 1 mg/kg sc, read-out: Brain Mean ± SD): 0.078 ± 0.0052 µM
concentration at 30 min ([1]; mouse, brain, subcutaneous, 1 mg/kg, Mouse NOR (1-10 mg/kg study), 1 mg/kg sc, read-out: Brain Mean ± SD): 0.097 ± 0.016 µM
concentration at 30 min ([1]; mouse, brain, subcutaneous, 3 mg/kg, Mouse NOR (1-10 mg/kg study), 3 mg/kg sc, read-out: Brain Mean ± SD): 0.297 ± 0.048 µM
concentration at 30 min ([1]; mouse, brain, subcutaneous, 10 mg/kg, Mouse NOR (1-10 mg/kg study), 10 mg/kg sc, read-out: Brain Mean ± SD): 1.11 µM
Kp at 30 min ([1]; mouse, brain/plasma, subcutaneous, 0.3 mg/kg, Mouse NOR (0.03-1 mg/kg study), 0.30 mg/kg sc): 0.12
Kp at 30 min ([1]; mouse, brain/plasma, subcutaneous, 1 mg/kg, Mouse NOR (0.03-1 mg/kg study), 1 mg/kg sc): 0.11
Kp at 30 min ([1]; mouse, brain/plasma, subcutaneous, 1 mg/kg, Mouse NOR (1-10 mg/kg study), 1 mg/kg sc): 0.21
Kp at 30 min ([1]; mouse, brain/plasma, subcutaneous, 3 mg/kg, Mouse NOR (1-10 mg/kg study), 3 mg/kg sc): 0.19
Kp at 30 min ([1]; mouse, brain/plasma, subcutaneous, 10 mg/kg, Mouse NOR (1-10 mg/kg study), 10 mg/kg sc): 0.2
Kp ([1]; mouse, brain/plasma, subcutaneous, mice, read-out: average brain/plasma): 0.17
concentration at 60 min ([1]; mouse, plasma, 0.03 mg/kg, 0.03 mg/kg sc, read-out: Plasma Mean ± SD): 0.005 ± 0.0004 µM
concentration at 60 min ([1]; mouse, plasma, 0.1 mg/kg, 0.10 mg/kg sc, read-out: Plasma Mean ± SD): 0.021 ± 0.0024 µM
concentration at 60 min ([1]; mouse, plasma, 0.3 mg/kg, 0.30 mg/kg sc, read-out: Plasma Mean ± SD): 0.094 ± 0.019 µM
concentration at 60 min ([1]; mouse, plasma, 1 mg/kg, 1 mg/kg sc, read-out: Plasma Mean ± SD): 0.254 ± 0.032 µM
concentration at 60 min ([1]; mouse, plasma, 3 mg/kg, 3 mg/kg sc, read-out: Plasma Mean ± SD): 0.774 ± 0.282 µM
concentration at 60 min ([1]; mouse, plasma, 10 mg/kg, 10 mg/kg sc, read-out: Plasma Mean ± SD): 2.98 µM
concentration at 30 min ([1]; mouse, plasma, subcutaneous, 0.03 mg/kg, Mouse NOR (0.03-1 mg/kg study), 0.03 mg/kg sc, read-out: Plasma Mean ± SD): 0.014 ± 0.0027 µM
concentration at 30 min ([1]; mouse, plasma, subcutaneous, 0.1 mg/kg, Mouse NOR (0.03-1 mg/kg study), 0.10 mg/kg sc, read-out: Plasma Mean ± SD): 0.052 ± 0.0036 µM
concentration at 30 min ([1]; mouse, plasma, subcutaneous, 0.3 mg/kg, Mouse NOR (0.03-1 mg/kg study), 0.30 mg/kg sc, read-out: Plasma Mean ± SD): 0.213 ± 0.049 µM
concentration at 30 min ([1]; mouse, plasma, subcutaneous, 1 mg/kg, Mouse NOR (0.03-1 mg/kg study), 1 mg/kg sc, read-out: Plasma Mean ± SD): 0.719 ± 0.069 µM
concentration at 30 min ([1]; mouse, plasma, subcutaneous, 1 mg/kg, Mouse NOR (1-10 mg/kg study), 1 mg/kg sc, read-out: Plasma Mean ± SD): 0.459 ± 0.059 µM
concentration at 30 min ([1]; mouse, plasma, subcutaneous, 3 mg/kg, Mouse NOR (1-10 mg/kg study), 3 mg/kg sc, read-out: Plasma Mean ± SD): 1.57 µM
concentration at 30 min ([1]; mouse, plasma, subcutaneous, 10 mg/kg, Mouse NOR (1-10 mg/kg study), 10 mg/kg sc, read-out: Plasma Mean ± SD): 5.55 µM
IC50 (Adrenergic α2A): > 30 µM
IC50 (Nav1.5): > 30 µM
inhibition at 10 µM (Muscarinic M1): 11%
IC50 (NMDA NR1/2A): > 30 µM
EC50 (5-HT2B): > 10 µM
